In PMC11063903, “Engineering a human P2X2 receptor with altered ligand selectivity in yeast” (The Journal of Biological Chemistry, 2024):
Where a chain is given by its changes, count along the chain named.

Columns and labels:
[1] = molecular target: T1, P2X2 R302 lysine (R302K) (Homo sapiens, UniProt Q9UBL9, R302K); experiment: Site-saturation screen of ligand-binding domain with ATP, R302 lysine; assay type: cell-based; conditions: 500 μM ATP, ± sd
T1 construct: expressed in transfected cells; host or cells: S. cerevisiae BY4741 background
T1 sequence (Q9UBL9 whole entry R302K, the tested form may be a part): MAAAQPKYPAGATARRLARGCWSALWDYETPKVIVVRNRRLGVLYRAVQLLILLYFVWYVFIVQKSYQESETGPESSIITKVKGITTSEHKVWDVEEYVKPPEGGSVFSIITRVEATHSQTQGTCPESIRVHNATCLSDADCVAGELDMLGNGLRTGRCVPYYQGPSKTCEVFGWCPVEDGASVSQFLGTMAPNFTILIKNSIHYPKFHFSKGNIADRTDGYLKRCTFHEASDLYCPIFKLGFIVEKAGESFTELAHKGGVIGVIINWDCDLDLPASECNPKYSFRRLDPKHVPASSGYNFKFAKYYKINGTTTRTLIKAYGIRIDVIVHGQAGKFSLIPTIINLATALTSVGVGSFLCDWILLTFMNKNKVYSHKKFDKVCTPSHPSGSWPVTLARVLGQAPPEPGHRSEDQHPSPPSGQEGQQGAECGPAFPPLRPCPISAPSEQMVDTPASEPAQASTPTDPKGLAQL
From the text: (§1) The yeast P2X2 screening platform poses an opportunity to probe the structure-function of the ligand-binding domain in detail. The conserved P2X “NFR” motif at residues 300 to 302 is directly involved in bonding to the ATP triphosphate moiety ([41]), so we mutagenized residues at or near this motif (298–304), ultimately covering 133 variants (7 sites, 19 residues each). […] We compared our results to phylogenetic data based on a multiple sequence alignment (MSA) from a curated set of 419 related P2X homologs (Figs. 3B, and S5; Table S1).
(§2) Figure 3 Structure-function analysis of the ligand binding domain.A, heat map summarizing the screening data of ATP with seven site-saturation libraries surrounding the NFR-motif. B, sequence-logo plot of the mutagenized residues and percent identity scores as determined from MSA. C, homology model of P2X2 colored by sequence conservation as calculated from a multiple sequence alignment of 419 related P2X genes. Conservation is scored on a log scale where maroon is more conserved and blue is less conserved. D, ATP in the ligand-binding pocket of P2X2. […]
(§3) GCaMP assays were performed as follows. […] Cells were loaded onto a black, clear bottom microplate and imaged on a FlexStation3 plate reader. […] Fluorescence was measured with an excitation at 485 nm, and emission 525 nm. […] For strains with mScarlet, fluorescence was read with excitation 570 nm/emission 610 nm. […]

[2] = molecular target: T2, P2X2 F303Y (Homo sapiens, UniProt Q9UBL9, F303Y); experiment: Fast GCaMP-mScarletI assay in yeast, P2X2 F303Y; assay type: cell-based; conditions: site-saturation screen, 500 μM ATP, ± sd
T2 construct: expressed in transfected cells; host or cells: S. cerevisiae BY4741 background
T2 sequence (Q9UBL9 1-471 F303Y): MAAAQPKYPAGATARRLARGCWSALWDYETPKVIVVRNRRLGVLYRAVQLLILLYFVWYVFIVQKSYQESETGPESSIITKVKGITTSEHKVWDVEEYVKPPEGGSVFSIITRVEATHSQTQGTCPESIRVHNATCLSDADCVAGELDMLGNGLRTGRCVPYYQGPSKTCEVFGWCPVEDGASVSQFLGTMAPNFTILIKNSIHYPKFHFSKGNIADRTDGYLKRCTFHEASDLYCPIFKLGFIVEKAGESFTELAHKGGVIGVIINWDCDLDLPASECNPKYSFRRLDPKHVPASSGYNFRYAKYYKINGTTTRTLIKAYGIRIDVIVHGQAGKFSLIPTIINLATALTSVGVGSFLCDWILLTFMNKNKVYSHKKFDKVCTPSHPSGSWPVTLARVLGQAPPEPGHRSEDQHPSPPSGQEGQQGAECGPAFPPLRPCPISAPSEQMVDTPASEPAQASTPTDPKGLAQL

[3] = molecular target: T3, P2X2 A304W (Homo sapiens, UniProt Q9UBL9, A304W); experiment: Fast GCaMP-mScarletI assay in yeast, P2X2 A304W; assay type: cell-based; conditions: site-saturation screen, 500 μM ATP, ± sd
T3 construct: expressed in transfected cells; host or cells: S. cerevisiae BY4741 background
T3 sequence (Q9UBL9 1-471 A304W): T2 sequence (Q9UBL9 1-471 F303Y) with Y303F, A304W

[4] = molecular target: T4, P2X2 F303L (Homo sapiens, UniProt Q9UBL9, F303L); experiment: Site-saturation screen of ligand-binding domain with ATP, F303L; assay type: cell-based; conditions: 500 μM ATP, ± sd
T4 construct: expressed in transfected cells; host or cells: Saccharomyces cerevisiae BY4741 derivative, genome-integrated, galactose-inducible
T4 sequence (Q9UBL9 whole entry F303L, the tested form may be a part): as the sequence (Q9UBL9 whole entry R302K, the tested form may be a part) above, with K302R, F303L counted along it
From the text: as §1, §2, §3

[5] = tested on: P2X2 all variants at V60, including the V60L mutation; experiment: Site-saturation screen, fast kinetic assay in yeast, V60 variants; assay type: cell-based, human; conditions: 500 μM ATP f.c., ΔF/ΔT normalized to WT
Procedure: Figure 2 P2X2 SNP testing.A, homology model of P2X2 with the clinically implicated SNPs highlighted. V60 is highlighted in magenta and G353 is highlighted in dark blue. Lines indicate the positions of the mutations on each of the three monomers. B, zoomed view of the transmembrane region from the purple box in (A). V60 is magenta and G353 is dark blue. The structure is rotated 60° on the right image. C, screening data from site-saturation of the V60 residue in saturating ATP concentration (500 μM f.c.) using the fast kinetic assay. Signal onset values (ΔF/ΔT) are normalized to values from the WT receptor. […] Each of 2 to 3 replicates is represented as a single point. […]
GCaMP assays were performed as follows. […] Cells were loaded onto a black, clear bottom microplate and imaged on a FlexStation3 plate reader. […] Fluorescence was measured with an excitation at 485 nm, and emission 525 nm. […] For strains with mScarlet, fluorescence was read with excitation 570 nm/emission 610 nm. Slopes were calculated from the last 6 points of measurement and were normalized to the positive control samples. Any replicate in which the mScarlet value was measured to be over 2 standard deviations less than the mean for that set was discarded from further analysis.

[6] = molecular target: T5, P2X2 F303I (Homo sapiens, UniProt Q9UBL9, F303I); experiment: Site-saturation screen of ligand-binding domain with ATP, F303I; assay type: cell-based; conditions: 500 μM ATP, ± sd
T5 construct: expressed in transfected cells; host or cells: S. cerevisiae BY4741 background
T5 sequence (Q9UBL9 whole entry F303I, the tested form may be a part): as the sequence (Q9UBL9 whole entry R302K, the tested form may be a part) above, with K302R, F303I counted along it
From the text: as §1, §2, §3

[7] = molecular target: T6, P2X2 A304H (Homo sapiens, UniProt Q9UBL9, A304H); experiment: Site-saturation screen of ligand-binding domain with ATP, A304H; assay type: cell-based; conditions: 500 μM ATP, ± sd
T6 construct: expressed in transfected cells; host or cells: Saccharomyces cerevisiae BY4741 derivative, genome-integrated, galactose-inducible
T6 sequence (Q9UBL9 whole entry A304H, the tested form may be a part): as the sequence (Q9UBL9 whole entry R302K, the tested form may be a part) above, with K302R, A304H counted along it
From the text: as §1, §2, §3

With `Nc1ncnc2c1ncn2[C@@H]1O[C@H](COP(=O)(O)OP(=O)(O)OP(=O)(O)O)[C@@H](O)[C@H]1O` [ATP] the “signal, % of WT signaling” value [1] was 43 ± 15%, the “signal, % of WT signaling” value [2] was 113 ± 45% and the “signal, % of WT signaling” value [3] was 125 ± 47%. For the same compound, the “signal, % of WT signaling” value [4] was 108 ± 89%, the “response to ATP” value [5] was “unresponsive” and the “signal, % of WT signaling” value [6] was 90 ± 42%. For the same compound, the “signal, % of WT signaling” value [7] was 27 ± 18%.
